Patent publication US20260337212A1, “IP4-4,6 SUBSTITUTED DERIVATIVE COMPOUNDS FOR USE IN THE TREATMENT, INHIBITION OF PROGRESSION, AND PREVENTION OF ECTOPIC CALCIFICATION” (SANIFIT THERAPEUTICS, S.A., priority 2022, published 2026)

Assay: Rat vitamin D3 model: tissue calcium content (ICP-OES)
Assay type: in vivo, Sprague Dawley rat
Conditions: 5, 15, 45 mg/kg s.c. daily D1-D13
Experimental: FIG. 12 represents the mean calcium content (±SD) in Sham rats (no VitD3 treatment) and rats treated with vehicle or Compound 27 (5, 15, and 45 mg/kg) in (A) aorta, (B) heart, (C) femoral artery, (D) carotid arteries, and (E) kidney. For femoral and carotid arteries, the mean of the calcium content in left and right vessels was used. Statistical analysis: One-way ANOVA with Fisher's LSD test for post-hoc comparisons. (#) indicates significant differences vs. sham, (*) indicates significant differences vs vehicle, (§) indicates significant differences vs Compound 27 5 mg/kg (only applies to other Compound 27 doses), (¥) indicates significant differences vs Compound 27 15 mg/kg (only applies to Compound 27 45 mg/kg), p<0.05. N=7-12 animals/group.
The model evaluated the effects of Compound 27 on tissue calcification, blood perfusion, and walking ability in rats for a duration of 13 days. Tissue calcification was induced in groups 2-5 from D1 to D3. Animals induced with calcification were administered placebo or active agent formulations from D1 onwards to assess their effects in preventing calcification. The impact of treatment on tissue calcification, blood perfusion, and walking ability was evaluated. Observations were taken at several points during the treatment from D0 to D13. All animals were weighed every day before treatment.
Fifty-eight male Sprague Dawley (SD) rats (Envigo Corp., Huntingdon, GB) weighing approximately 275-300 g were used. The animals were fed with a standard LASQCdiet® Rod14-H4 diet (LASvendi, Soest, DE). The animals were divided in 5 groups, 10 to 12 animals per group, as follows: • Group 1—Control (sham), 10 animals • Group 2—Physiological saline solution (placebo) daily, 12 animals • Group 3—Compound 27, 5 mg/kg daily, 12 animals • Group 4—Compound 27, 15 mg/kg daily, 12 animals • Group 5—Compound 27, 45 mg/kg daily, 12 animals
Calcification was induced in the animals of groups 2-5 by subcutaneous administration of 120,000 IU/kg vitamin D3 (cholecalciferol, Duphafral D3 1000; Zoetis Inc., Parsippany, NJ, US) in physiological saline 0.9% (w/v) NaCl solution (2 mL/kg) daily from D1 to D3. Animals in group 1 were administered 2 mL/kg of physiological saline solution daily from D1 to D3 via subcutaneous route with no vitamin D3. Animals in group 2 were administered 2 mL/kg of physiological saline solution daily from D1 to D13 via subcutaneous route. Animals in groups 3, 4, and 5 were administered 5 mg/kg, 15 mg/kg, and 45 mg/kg, respectively, of Compound 27 (754.45 g/mol free acid) daily in physiological saline solution (2 mL/kg) from D1 to D13 via subcutaneous route.
All the living animals of groups 1-5 were sacrificed in D13 for determining their Ca values in tissue (i.e., aorta, carotids, femoral, heart, kidney).
The animals were exsanguinated before sacrifice. Their necropsies were performed, and their whole right and left femoral arteries, left and right carotids, aorta, heart, and right kidney were collected for calcium content measurement. The tissues were lyophilized for 24 h and weighed. The lyophilized tissues were then digested using a 1:1 HNO3:HClO4 mixture in a dry bath incubator for 2-4 h at 180° C. The digested tissues were subsequently diluted using ultra-pure Milli-Q water (MilliporeSigma, Merck KGaA, Burlington, MA, US) to a final volume of 5 mL (for femoral and carotid) or 10 mL (for heart, kidney and aorta). Calcium content was quantified via inductively coupled plasma optical emission spectrometry (ICP-OES) using an Optima 7300 DV ICP-OES System spectrometer (PerkinElmer, Inc., Waltham, MA, US) according to the manufacturer's instructions.

## 4,6-O-bis(5-acetamidopentyl)-myo-inositol-1,2,3,5-tetrakis(phosphate) octasodium salt [Compound 27]
aorta, carotids, femoral, heart, kidney
  Inhibition of ectopic calcification in all evaluated tissues: inhibits ectopic calcification in all the evaluated tissues
aorta, FIG. 12A
  Inhibition of calcification in aorta: observed at 45 mg/kg
carotids, FIG. 12D
  Inhibition of calcification in the carotids: observed at 45 mg/kg
Femoral arteries, FIG. 12C
  Inhibition of calcification in the femoral arteries: dose-response effect from 5 mg/kg
heart, FIG. 12B
  Inhibition of calcification in the heart: dose-response effect from 5 mg/kg
kidney, FIG. 12E
  Inhibition of calcification in the kidneys: dose-response effect from 5 mg/kg
